Earlier results in US20220142944A1, “TREATMENT OF SKIN DISORDERS WITH TOPICAL TAPINAROF-EGFR INHIBITOR COMPOSITIONS” (Sol-Gel Technologies Ltd., priority 2019, published 2022).

What was measured:
[1] = system: atopic dermatitis and plaque psoriasis
[2] = not given; remark: listed apart in the source
[3] = 1% tapinarof arm compared with 0.5% arm or vehicle

Row | solubility | Compound | efficacy [1, 3] | onset of action [1, 3] | most frequent adverse events ([1]; topical tapinarof) | rate of treatment-emergent adverse events ([2]; 93 of 165 with tapinarof, vehicle 34 of 82 [41%]) [%] | intensity of treatment-emergent adverse events ([2]; in vivo)
1 | poorly soluble | C#Cc1cccc(Nc2ncnc3cc(OCCOC)c(OCCOC)cc23)c1 [erlotinib] |  |  |  |  | 
2 |  | CC(C)c1c(O)cc(/C=C/c2ccccc2)cc1O [tapinarof, 3,5-dihydroxy-4-isopropyl-trans-stilbene] | higher efficacy | quicker onset of action | folliculitis and contact dermatitis | 56 | mild to moderate
